Reference: ChEMBL document CHEMBL1155191, “Simple dihydrosphyngosine analogues with potent activity against MDR-Mycobacterium tuberculosis” (2009)
Values after ≈ are worked out from the molar mass of the structure shown.

tested on: Mycobacterium tuberculosis; assay: Antimycobacterial activity against multidrug-resistant Mycobacterium tuberculosis 331 after 5 to 7 days by microplate alamar blue assay; format: functional

Row | SMILES | MIC
1 | CCCCCCCCCCCCCCC(COCc1ccccc1)N(CC)CC (stereo not drawn) | 15.5 µM (≈ 6.26 µg/mL)
2 | CCCCCCCCCCCCCCC(N)COCc1ccccc1 (stereo not drawn) | 9 µM (≈ 3.13 µg/mL)
3 | CCCCCCCCCCCCCCC(N)CN(CC)CC (stereo not drawn) | 40 µM (≈ 12.5 µg/mL)

tested on: Mycobacterium tuberculosis; assay: Antimycobacterial activity against multidrug-resistant, pyrazinamide-sensitive Mycobacterium tuberculosis 366 after 5 to 7 days by microplate alamar blue assay; format: functional

Row | SMILES | MIC
4 | CCCCCCCCCCCCCCC(COCc1ccccc1)N(CC)CC (stereo not drawn) | 3.9 µM (≈ 1.57 µg/mL)
5 | CCCCCCCCCCCCCCC(N)COCc1ccccc1 (stereo not drawn) | 4.5 µM (≈ 1.56 µg/mL)
6 | CCCCCCCCCCCCCCC(N)CN(CC)CC (stereo not drawn) | 20 µM (≈ 6.25 µg/mL)

tested on: Mycobacterium tuberculosis; assay: Antimycobacterial activity against multidrug-resistant, ethambutol-sensitive Mycobacterium tuberculosis 494 after 5 to 7 days by microplate alamar blue assay; format: functional

Row | SMILES | MIC
7 | CCCCCCCCCCCCCCC(COCc1ccccc1)N(CC)CC (stereo not drawn) | 7.7 µM (≈ 3.11 µg/mL)
8 | CCCCCCCCCCCCCCC(N)COCc1ccccc1 (stereo not drawn) | 9 µM (≈ 3.13 µg/mL)
9 | CCCCCCCCCCCCCCC(N)CN(CC)CC (stereo not drawn) | 40 µM (≈ 12.5 µg/mL)

tested on: Mycobacterium tuberculosis; assay: Antimycobacterial activity against multidrug-resistant Mycobacterium tuberculosis 535 after 5 to 7 days by microplate alamar blue assay; format: functional

Row | SMILES | MIC
10 | CCCCCCCCCCCCCCC(COCc1ccccc1)N(CC)CC (stereo not drawn) | 3.9 µM (≈ 1.57 µg/mL)
11 | CCCCCCCCCCCCCCC(N)COCc1ccccc1 (stereo not drawn) | 18 µM (≈ 6.26 µg/mL)
12 | CCCCCCCCCCCCCCC(N)CN(CC)CC (stereo not drawn) | 40 µM (≈ 12.5 µg/mL)

tested on: Mycobacterium tuberculosis; assay: Antimycobacterial activity against multidrug-resistant, ethambutol-sensitive Mycobacterium tuberculosis 401 after 5 to 7 days by microplate alamar blue assay; format: functional

Row | SMILES | MIC
13 | CCCCCCCCCCCCCCC(COCc1ccccc1)N(CC)CC (stereo not drawn) | 7.7 µM (≈ 3.11 µg/mL)
14 | CCCCCCCCCCCCCCC(N)COCc1ccccc1 (stereo not drawn) | 4.5 µM (≈ 1.56 µg/mL)
15 | CCCCCCCCCCCCCCC(N)CN(CC)CC (stereo not drawn) | 40 µM (≈ 12.5 µg/mL)

tested on: Mycobacterium tuberculosis; assay: Antimycobacterial activity against multidrug-resistant Mycobacterium tuberculosis 160 after 5 to 7 days by microplate alamar blue assay; format: functional

Row | SMILES | MIC
16 | CCCCCCCCCCCCCCC(COCc1ccccc1)N(CC)CC (stereo not drawn) | 7.7 µM (≈ 3.11 µg/mL)
17 | CCCCCCCCCCCCCCC(N)COCc1ccccc1 (stereo not drawn) | 9 µM (≈ 3.13 µg/mL)
18 | CCCCCCCCCCCCCCC(N)CN(CC)CC (stereo not drawn) | 40 µM (≈ 12.5 µg/mL)

tested on: Mycobacterium tuberculosis; assay: Antimycobacterial activity against streptomycin, rifampicin, pyrazinamide-sensitive isoniazid, ethambutol-resistant Mycobacterium tuberculosis 363 after 5 to 7 days by microplate alamar blue assay; format: functional

Row | SMILES | MIC
19 | CCCCCCCCCCCCCCC(COCc1ccccc1)N(CC)CC (stereo not drawn) | 3.9 µM (≈ 1.57 µg/mL)
20 | CCCCCCCCCCCCCCC(N)COCc1ccccc1 (stereo not drawn) | 18 µM (≈ 6.26 µg/mL)
21 | CCCCCCCCCCCCCCC(N)CN(CC)CC (stereo not drawn) | 40 µM (≈ 12.5 µg/mL)

tested on: Mycobacterium tuberculosis; assay: Antimycobacterial activity against multidrug-resistant Mycobacterium tuberculosis 332 after 5 to 7 days by microplate alamar blue assay; format: functional

Row | SMILES | MIC
22 | CCCCCCCCCCCCCCC(COCc1ccccc1)N(CC)CC (stereo not drawn) | 1.9 µM (≈ 0.767 µg/mL)
23 | CCCCCCCCCCCCCCC(N)COCc1ccccc1 (stereo not drawn) | 36 µM (≈ 12.5 µg/mL)
24 | CCCCCCCCCCCCCCC(N)CN(CC)CC (stereo not drawn) | 40 µM (≈ 12.5 µg/mL)

tested on: Mycobacterium tuberculosis; assay: Antimycobacterial activity against multidrug-resistant Mycobacterium tuberculosis 528 after 5 to 7 days by microplate alamar blue assay; format: functional

Row | SMILES | MIC
25 | CCCCCCCCCCCCCCC(COCc1ccccc1)N(CC)CC (stereo not drawn) | 15.5 µM (≈ 6.26 µg/mL)
26 | CCCCCCCCCCCCCCC(N)COCc1ccccc1 (stereo not drawn) | 18 µM (≈ 6.26 µg/mL)
27 | CCCCCCCCCCCCCCC(N)CN(CC)CC (stereo not drawn) | 40 µM (≈ 12.5 µg/mL)

tested on: Mycobacterium tuberculosis; assay: Antimycobacterial activity against multidrug-resistant, streptomycin-sensitive Mycobacterium tuberculosis 429 after 5 to 7 days by microplate alamar blue assay; format: functional

Row | SMILES | MIC
28 | CCCCCCCCCCCCCCC(COCc1ccccc1)N(CC)CC (stereo not drawn) | 7.7 µM (≈ 3.11 µg/mL)
29 | CCCCCCCCCCCCCCC(N)COCc1ccccc1 (stereo not drawn) | 9 µM (≈ 3.13 µg/mL)
30 | CCCCCCCCCCCCCCC(N)CN(CC)CC (stereo not drawn) | 40 µM (≈ 12.5 µg/mL)

tested on: Mycobacterium tuberculosis; assay: Antimycobacterial activity against multidrug-resistant Mycobacterium tuberculosis 411 after 5 to 7 days by microplate alamar blue assay; format: functional

Row | SMILES | MIC
31 | CCCCCCCCCCCCCCC(COCc1ccccc1)N(CC)CC (stereo not drawn) | 7.7 µM (≈ 3.11 µg/mL)
32 | CCCCCCCCCCCCCCC(N)COCc1ccccc1 (stereo not drawn) | 4.5 µM (≈ 1.56 µg/mL)
33 | CCCCCCCCCCCCCCC(N)CN(CC)CC (stereo not drawn) | 40 µM (≈ 12.5 µg/mL)
